Results on 4 molecules are retold here after article PMC11124507, “Synthesis and Evaluation of Novel ^68Ga-Labeled [D-Phe^6,Leu^13ψThz^14]bombesin(6-14) Analogs for Cancer Imaging with Positron Emission Tomography” (Pharmaceuticals, 2024).

For one series, the target named is T1, GRPR (Homo sapiens, UniProt P30550).
T1 construct: Known to overexpress GRPR, the PC-3 cell line, a human prostate cancer cell line; host or cells: PC-3 human prostate cancer cells
Nature of the series: Fluorometric intracellular calcium release assay in PC-3 cells. Type of series: cell-based. The conditions noted are these: 50 nM, n = 3. On the procedure:
Following previously published procedures, 5 × 10^4 PC-3 cells in 100 μL of growth media were seeded per well in a 96-well clear-bottom black plate 24 h prior to the assay. A loading buffer (100 μL/well) containing a calcium-sensitive dye (FLIPR Calcium 6 assay kit) was added to the 96-well plate. After incubation at 37 °C for 2 h, the plate was placed in a FlexStation 3 microplate reader (Molecular Devices, San Jose, CA, USA). TacsBOMB2 derivatives (50 nM), [D-Phe^6,Leu-NHEt^13,des-Met^14]Bombesin(6-14) (50 nM, antagonist control), bombesin (50 nM, agonist control), adenosine triphosphate (ATP, 50 nM, positive control), or DPBS (blank control) was added, and the fluorescent signals were acquired for 2 min (λEx = 485 nm; λEm = 525 nm; n = 3). The relative fluorescent units (RFUs = max − min) were measured to determine the agonistic/antagonistic properties.

The next series has as its system PC-3 tumor xenografts. The note with it: mouse, in vivo, 1 h; cited from earlier work.

T1 sequence (P30550 whole entry): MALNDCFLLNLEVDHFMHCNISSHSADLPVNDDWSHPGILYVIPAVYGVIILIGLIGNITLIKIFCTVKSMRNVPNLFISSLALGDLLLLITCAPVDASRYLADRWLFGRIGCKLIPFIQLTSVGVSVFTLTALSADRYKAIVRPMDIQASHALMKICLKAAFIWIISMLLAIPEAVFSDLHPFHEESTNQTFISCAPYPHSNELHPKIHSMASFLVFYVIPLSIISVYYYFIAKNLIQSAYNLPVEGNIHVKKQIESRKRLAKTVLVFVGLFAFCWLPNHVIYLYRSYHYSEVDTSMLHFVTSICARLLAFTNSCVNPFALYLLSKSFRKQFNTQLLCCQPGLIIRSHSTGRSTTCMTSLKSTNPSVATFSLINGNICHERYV

`Nc1ncnc2c1ncn2[C@@H]1O[C@H](COP(=O)(O)OP(=O)(O)OP(=O)(O)O)[C@@H](O)[C@H]1O` [ATP, adenosine triphosphate]: the “Ca2+ efflux” value on GRPR was 222 ± 21.7 RFUs.

As for “[D-Phe^6,Leu-NHEt^13,des-Met^14]Bombesin(6-14)”, the “Ca2+ efflux” value on GRPR is 38.2 ± 7.20 RFUs.

For “[^68Ga]Ga-DOTA-Pip-D-Phe^6-Gln^7-Trp^8-Ala^9-Val^10-Gly^11-His^12-Leu^13ψThz^14-NH2 [[^68Ga]Ga-TacsBOMB2]”, in the series with PC-3 tumor xenografts, the Adrenal glands uptake is 0.57 ± 0.40 %ID/g, the Blood uptake is 0.76 ± 0.21 %ID/g, the Bone uptake is given as 0.19 ± 0.06 %ID/g and the Brain uptake is 0.05 ± 0.03 %ID/g. Besides, in the series with PC-3 tumor xenografts, the Fat uptake is 0.09 ± 0.03 %ID/g, the Heart uptake is reported as 0.27 ± 0.08 %ID/g, the Kidneys uptake was 2.51 ± 0.59 %ID/g and the Large intestine uptake was 0.37 ± 0.16 %ID/g. Moreover, in the series on PC-3 tumor xenografts, the Liver uptake was 2.61 ± 0.70 %ID/g, the Lungs uptake is 0.75 ± 0.52 %ID/g, the Muscle uptake is given as 0.15 ± 0.05 %ID/g and the PC-3 tumor uptake is recorded as 10.2 ± 2.27 %ID/g. Further, in the series with PC-3 tumor xenografts, the Pancreas uptake is recorded as 2.81 ± 0.78 %ID/g, the Small intestine uptake is 1.04 ± 0.30 %ID/g, the Spleen uptake is reported as 0.47 ± 0.17 %ID/g and the Stomach uptake was 0.32 ± 0.08 %ID/g. Besides, the Testes uptake in the series on PC-3 tumor xenografts is given as 0.19 ± 0.05 %ID/g.

For bombesin, the “Ca2+ efflux” value at GRPR amounted to 499 ± 73.4 RFUs.
